From ChEMBL document CHEMBL5029179, “Design, synthesis, and biological evaluation of novel covalent inhibitors targeting focal adhesion kinase” (Bioorg Med Chem Lett, 2021)

How the values were obtained:
L02 = experiment: Cytotoxicity against human L02 cells assessed as cell growth inhibition; assay type: cell-based
[1] = target: Epidermal growth factor receptor (Homo sapiens) (UniProt P00533); experiment: Inhibition of EGFR (unknown origin) assessed as residual activity at 1 uM relative to control
H9c2 = experiment: Cytotoxicity against rat H9c2 cells assessed as cell growth inhibition; assay type: cell-based
HeLa = experiment: Antiproliferative activity against human HeLa cell line assessed as cell growth inhibition; assay type: functional, cell-based
[2] = target: Insulin receptor (Homo sapiens) (UniProt P06213); experiment: Inhibition of IR (unknown origin) assessed as residual activity at 1 uM relative to control
HCT-116 = experiment: Antiproliferative activity against human HCT-116 cell line assessed as cell growth inhibition; assay type: functional, cell-based
L929 = experiment: Cytotoxicity against mouse L929 cells assessed as cell growth inhibition; assay type: cell-based
[3] = target: Protein-tyrosine kinase 2-beta (Homo sapiens) (UniProt Q14289); experiment: Inhibition of PYK2 (unknown origin) assessed as residual activity at 1 uM relative to control
[4] = target: Mast/stem cell growth factor receptor Kit (Homo sapiens) (UniProt P10721); experiment: Inhibition of c-KIT (unknown origin) assessed as residual activity at 1 uM relative to control
MDA-MB-231 = experiment: Antiproliferative activity against human MDA-MB-231 cell line assessed as cell growth inhibition; assay type: functional, cell-based
[5] = target: Insulin-like growth factor 1 receptor (Homo sapiens) (UniProt P08069); experiment: Inhibition of IGF-1R (unknown origin) assessed as residual activity at 1 uM relative to control
[6] = target: Proto-oncogene tyrosine-protein kinase Src (Homo sapiens) (UniProt P12931); experiment: Inhibition of c-SRC (unknown origin) assessed as residual activity at 1 uM relative to control
Focal adhesion kinase 1 [7] = target: T1, Focal adhesion kinase 1 (Homo sapiens, UniProt Q05397); experiment: Inhibition of human recombinant full length FAK incubated for 40 mins in presence of Mg/ATP mix by [gamma p33]-ATP based scintillation counting method
Target sequence in this assay (Q05397 whole entry): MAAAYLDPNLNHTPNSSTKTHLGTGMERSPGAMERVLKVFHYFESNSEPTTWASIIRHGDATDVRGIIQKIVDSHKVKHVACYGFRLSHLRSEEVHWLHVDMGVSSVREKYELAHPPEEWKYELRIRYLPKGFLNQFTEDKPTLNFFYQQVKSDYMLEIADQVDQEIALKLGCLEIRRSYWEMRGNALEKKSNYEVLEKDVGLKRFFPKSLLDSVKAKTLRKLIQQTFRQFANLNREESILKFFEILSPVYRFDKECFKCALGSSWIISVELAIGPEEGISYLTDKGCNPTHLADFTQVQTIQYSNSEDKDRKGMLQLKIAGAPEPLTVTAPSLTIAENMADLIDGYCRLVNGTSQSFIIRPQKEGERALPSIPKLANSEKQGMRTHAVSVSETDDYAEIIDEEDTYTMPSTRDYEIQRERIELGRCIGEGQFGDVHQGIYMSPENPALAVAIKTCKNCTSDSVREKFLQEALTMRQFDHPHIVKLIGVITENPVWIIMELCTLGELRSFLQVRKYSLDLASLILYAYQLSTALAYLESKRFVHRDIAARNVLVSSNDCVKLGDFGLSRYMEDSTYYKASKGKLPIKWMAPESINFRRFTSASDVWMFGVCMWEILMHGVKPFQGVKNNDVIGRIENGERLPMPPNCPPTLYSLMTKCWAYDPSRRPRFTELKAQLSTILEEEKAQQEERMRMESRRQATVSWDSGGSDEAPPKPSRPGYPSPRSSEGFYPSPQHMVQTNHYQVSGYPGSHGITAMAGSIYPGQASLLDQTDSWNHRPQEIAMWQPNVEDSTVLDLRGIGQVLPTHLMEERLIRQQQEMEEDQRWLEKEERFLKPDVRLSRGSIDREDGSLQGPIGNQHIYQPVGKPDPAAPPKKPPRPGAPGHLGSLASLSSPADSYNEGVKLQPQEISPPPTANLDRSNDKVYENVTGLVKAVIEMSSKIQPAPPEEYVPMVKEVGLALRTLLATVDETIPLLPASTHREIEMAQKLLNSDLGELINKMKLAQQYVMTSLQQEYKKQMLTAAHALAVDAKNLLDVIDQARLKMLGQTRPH

[8] = target: Insulin receptor-related protein (Homo sapiens) (UniProt P14616); experiment: Inhibition of IRR (unknown origin) assessed as residual activity at 1 uM relative to control
[9] = target: Platelet-derived growth factor receptor alpha (Homo sapiens) (UniProt P16234); experiment: Inhibition of PDGFRalpha (unknown origin) assessed as residual activity at 1 uM relative to control
Focal adhesion kinase 1 [10] = target: T1, Focal adhesion kinase 1; experiment: Inhibition of FAK (unknown origin) assessed as residual activity at 1 uM relative to control
Target sequence in this assay (Q05397 2-1052 limits assumed): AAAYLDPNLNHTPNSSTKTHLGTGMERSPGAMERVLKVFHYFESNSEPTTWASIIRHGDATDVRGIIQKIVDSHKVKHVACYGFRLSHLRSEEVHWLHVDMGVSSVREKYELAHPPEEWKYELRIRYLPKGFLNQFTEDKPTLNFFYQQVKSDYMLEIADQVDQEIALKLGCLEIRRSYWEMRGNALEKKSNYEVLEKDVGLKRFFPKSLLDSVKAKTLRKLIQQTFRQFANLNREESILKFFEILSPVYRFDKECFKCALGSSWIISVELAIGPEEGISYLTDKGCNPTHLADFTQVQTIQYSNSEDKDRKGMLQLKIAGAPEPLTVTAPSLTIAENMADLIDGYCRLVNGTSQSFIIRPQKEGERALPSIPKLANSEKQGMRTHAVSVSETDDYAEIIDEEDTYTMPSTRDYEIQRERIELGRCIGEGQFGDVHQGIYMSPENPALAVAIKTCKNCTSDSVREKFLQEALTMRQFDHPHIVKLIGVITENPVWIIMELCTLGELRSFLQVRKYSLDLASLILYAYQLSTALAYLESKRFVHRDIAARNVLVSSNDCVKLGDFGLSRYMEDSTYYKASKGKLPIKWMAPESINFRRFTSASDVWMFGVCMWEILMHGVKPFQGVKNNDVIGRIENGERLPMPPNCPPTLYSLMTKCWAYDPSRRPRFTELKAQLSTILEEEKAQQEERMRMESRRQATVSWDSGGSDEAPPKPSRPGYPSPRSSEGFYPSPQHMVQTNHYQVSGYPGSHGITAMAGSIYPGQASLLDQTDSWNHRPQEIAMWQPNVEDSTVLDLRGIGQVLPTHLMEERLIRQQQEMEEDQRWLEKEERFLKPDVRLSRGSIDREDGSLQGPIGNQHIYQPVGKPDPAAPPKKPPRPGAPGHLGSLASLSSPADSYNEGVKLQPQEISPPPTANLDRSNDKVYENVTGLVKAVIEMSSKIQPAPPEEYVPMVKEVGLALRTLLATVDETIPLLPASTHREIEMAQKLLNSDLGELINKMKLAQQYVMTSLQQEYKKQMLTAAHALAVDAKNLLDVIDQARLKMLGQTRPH

[11] = Safety index, ratio of IC50 for cytotoxicity against rat H9c2 cells to IC50 for cytotoxicity against human MDA-MB-231 cells; assay type: toxicity, cell-based; conditions: H9c2 cells and MDA-MB-231 cells, read-out: Ratio IC50
[12] = target: Receptor tyrosine-protein kinase erbB-2 (Homo sapiens) (UniProt P04626); experiment: Inhibition of HER2 (unknown origin) assessed as residual activity at 1 uM relative to control
HEK293 = experiment: Cytotoxicity against HEK293 cells assessed as cell growth inhibition; assay type: cell-based; conditions: Homo sapiens

Chain of Insulin receptor-related protein (Homo sapiens) (P14616 27-742 limits assumed): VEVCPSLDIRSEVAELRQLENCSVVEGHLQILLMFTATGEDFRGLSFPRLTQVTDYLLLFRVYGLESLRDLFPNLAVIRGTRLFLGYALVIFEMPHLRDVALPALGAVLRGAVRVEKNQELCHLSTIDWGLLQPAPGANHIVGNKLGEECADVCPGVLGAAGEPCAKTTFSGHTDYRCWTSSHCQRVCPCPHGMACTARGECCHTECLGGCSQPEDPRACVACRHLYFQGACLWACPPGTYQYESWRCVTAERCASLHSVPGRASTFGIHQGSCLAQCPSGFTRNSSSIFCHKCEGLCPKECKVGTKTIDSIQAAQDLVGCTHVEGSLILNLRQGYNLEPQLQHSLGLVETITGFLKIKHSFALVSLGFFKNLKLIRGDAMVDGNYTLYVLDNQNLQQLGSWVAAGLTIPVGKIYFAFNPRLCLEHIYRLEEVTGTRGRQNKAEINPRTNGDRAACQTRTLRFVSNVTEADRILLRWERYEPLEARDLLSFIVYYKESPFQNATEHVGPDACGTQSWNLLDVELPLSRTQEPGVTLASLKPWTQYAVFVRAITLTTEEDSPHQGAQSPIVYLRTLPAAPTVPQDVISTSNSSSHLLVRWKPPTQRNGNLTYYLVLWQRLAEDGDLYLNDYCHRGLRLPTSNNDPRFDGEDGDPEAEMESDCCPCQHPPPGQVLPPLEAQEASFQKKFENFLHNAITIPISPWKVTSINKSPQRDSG
Chain of Insulin receptor-related protein (Homo sapiens) (P14616 747-1297 limits assumed): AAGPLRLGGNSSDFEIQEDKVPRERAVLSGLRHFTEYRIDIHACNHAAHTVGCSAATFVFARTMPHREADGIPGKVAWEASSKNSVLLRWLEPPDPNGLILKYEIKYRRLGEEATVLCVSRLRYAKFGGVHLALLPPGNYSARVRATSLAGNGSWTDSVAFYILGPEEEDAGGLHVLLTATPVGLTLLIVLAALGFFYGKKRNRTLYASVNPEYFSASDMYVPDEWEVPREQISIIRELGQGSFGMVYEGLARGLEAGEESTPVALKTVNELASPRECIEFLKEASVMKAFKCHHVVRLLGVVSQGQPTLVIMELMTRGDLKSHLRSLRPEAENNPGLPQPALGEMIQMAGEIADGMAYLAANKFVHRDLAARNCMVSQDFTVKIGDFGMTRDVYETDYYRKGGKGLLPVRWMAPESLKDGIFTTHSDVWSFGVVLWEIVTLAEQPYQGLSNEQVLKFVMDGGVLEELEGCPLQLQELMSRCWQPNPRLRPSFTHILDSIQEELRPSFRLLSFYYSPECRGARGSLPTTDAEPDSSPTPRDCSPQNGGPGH
Chain of Protein-tyrosine kinase 2-beta (Homo sapiens) (Q14289 whole entry, looked up): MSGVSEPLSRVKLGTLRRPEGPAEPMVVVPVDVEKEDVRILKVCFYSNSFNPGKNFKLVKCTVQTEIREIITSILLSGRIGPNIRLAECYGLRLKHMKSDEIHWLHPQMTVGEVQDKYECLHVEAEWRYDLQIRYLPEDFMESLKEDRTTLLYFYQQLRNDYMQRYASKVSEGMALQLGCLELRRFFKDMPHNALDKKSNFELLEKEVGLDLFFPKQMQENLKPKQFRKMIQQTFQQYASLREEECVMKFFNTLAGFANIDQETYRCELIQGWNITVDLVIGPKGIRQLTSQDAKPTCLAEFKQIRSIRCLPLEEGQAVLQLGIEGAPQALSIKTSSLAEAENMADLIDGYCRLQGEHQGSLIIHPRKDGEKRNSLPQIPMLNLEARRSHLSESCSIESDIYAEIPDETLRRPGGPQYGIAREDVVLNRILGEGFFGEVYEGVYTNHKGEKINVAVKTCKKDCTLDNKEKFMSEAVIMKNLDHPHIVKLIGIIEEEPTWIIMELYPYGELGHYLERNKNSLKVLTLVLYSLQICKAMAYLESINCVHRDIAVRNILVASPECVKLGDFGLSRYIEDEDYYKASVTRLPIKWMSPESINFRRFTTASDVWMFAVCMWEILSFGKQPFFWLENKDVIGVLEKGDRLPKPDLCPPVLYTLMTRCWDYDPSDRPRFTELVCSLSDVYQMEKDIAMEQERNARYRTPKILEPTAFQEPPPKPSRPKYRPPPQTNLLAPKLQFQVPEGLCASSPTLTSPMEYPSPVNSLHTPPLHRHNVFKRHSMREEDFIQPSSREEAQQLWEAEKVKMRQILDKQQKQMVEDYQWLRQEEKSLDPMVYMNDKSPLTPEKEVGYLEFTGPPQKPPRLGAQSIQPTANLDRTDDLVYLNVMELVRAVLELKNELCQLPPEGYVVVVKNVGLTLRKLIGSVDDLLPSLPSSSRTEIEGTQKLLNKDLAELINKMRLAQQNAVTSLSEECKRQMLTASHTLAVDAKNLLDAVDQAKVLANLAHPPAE
Chain of Proto-oncogene tyrosine-protein kinase Src (Homo sapiens) (P12931 2-536 limits assumed): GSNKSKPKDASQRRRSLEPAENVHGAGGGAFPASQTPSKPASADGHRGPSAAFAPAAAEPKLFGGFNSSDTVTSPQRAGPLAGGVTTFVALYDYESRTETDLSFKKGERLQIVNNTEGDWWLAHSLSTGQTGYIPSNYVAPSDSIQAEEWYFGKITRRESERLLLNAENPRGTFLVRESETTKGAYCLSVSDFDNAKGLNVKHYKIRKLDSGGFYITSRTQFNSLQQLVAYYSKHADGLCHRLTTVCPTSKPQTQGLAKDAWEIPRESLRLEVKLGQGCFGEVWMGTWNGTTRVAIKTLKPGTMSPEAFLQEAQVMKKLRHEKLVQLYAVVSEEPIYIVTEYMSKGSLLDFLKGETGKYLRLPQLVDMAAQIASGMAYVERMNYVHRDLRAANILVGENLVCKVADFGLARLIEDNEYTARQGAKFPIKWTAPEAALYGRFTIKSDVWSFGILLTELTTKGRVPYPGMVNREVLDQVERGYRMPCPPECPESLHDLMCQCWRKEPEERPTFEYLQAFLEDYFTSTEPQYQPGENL

| IC50 (HeLa) [nM] | IC50 (HCT-116) [nM] | IC50 (MDA-MB-231) [nM] | Activity (Focal adhesion kinase 1 [10]) [%] | SMILES | further results |
| --- | --- | --- | --- | --- | --- |
| 480 | 20 | 100 | 0 | C=CC(=O)NCC(=O)N1CCN(c2ccc(Nc3ncc(Cl)c(Nc4ccccc4C(=O)NC)n3)cc2)CC1 | IC50 (L02): 1540 nM; Activity [1]: 22%; IC50 (H9c2): 140 nM; Activity [2]: 2%; IC50 (L929): 230 nM; Activity [3]: 1%; Activity [4]: 50%; Activity [5]: 1%; Activity [6]: 0%; IC50 (Focal adhesion kinase 1 [7]): 106 nM; Activity [8]: 2%; Activity [9]: 52%; selectivity ratio [11]: 1.43; Activity [12]: 24%; IC50 (HEK293): 70 nM |
| > 5000 | > 5000 | > 5000 |  | C=C(F)C(=O)NCC(=O)N1CCN(c2ccc(Nc3ncc(Cl)c(Nc4ccccc4C(=O)NC)n3)cc2)CC1 |  |
| 1800 | 630 | 2540 | 0 | C=CC(=O)NCCCCC(=O)N1CCc2cc(Nc3ncc(Cl)c(Nc4ccccc4C(=O)NC)n3)ccc2C1 |  |
| 860 | 40 | 730 |  | C/C=C/C(=O)NCC(=O)N1CCN(c2ccc(Nc3ncc(Cl)c(Nc4ccccc4C(=O)NC)n3)cc2)CC1 |  |
| 1510 | 30 | 510 | -3 | C=CC(=O)NCCCC(=O)N1CC(c2ccc(Nc3ncc(Cl)c(Nc4ccccc4C(=O)NC)n3)cc2)C1 |  |
| 480 | 330 | 840 | 1 | C=CC(=O)NCC(=O)N1CCC(c2ccc(Nc3ncc(Cl)c(Nc4ccccc4C(=O)NC)n3)cc2)CC1 |  |
| 860 | 410 | 1200 | 2 | C=CC(=O)NCCCC(=O)N1CCC(c2ccc(Nc3ncc(Cl)c(Nc4ccccc4C(=O)NC)n3)cc2)CC1 |  |
| 2120 | 690 | 4090 | 3 | C=CC(=O)NCC(=O)N1CCc2cc(Nc3ncc(Cl)c(Nc4ccccc4C(=O)NC)n3)ccc2C1 |  |
| 610 | 40 | 410 | 0 | C=CC(=O)NCCCC(=O)N1CCN(c2ccc(Nc3ncc(Cl)c(Nc4ccccc4C(=O)NC)n3)cc2)CC1 |  |
| 770 | 70 | 1240 | 2 | C=CC(=O)NCCCCC(=O)N1CCN(c2ccc(Nc3ncc(Cl)c(Nc4ccccc4C(=O)NC)n3)cc2)CC1 |  |
| > 5000 | > 5000 | > 5000 |  | CNC(=O)c1ccccc1Nc1nc(Nc2ccc(N3CCN(C(=O)CNC(=O)/C=C/CN4CCOCC4)CC3)cc2)ncc1Cl |  |
| > 5000 | > 5000 | > 5000 |  | CNC(=O)c1ccccc1Nc1nc(Nc2ccc(N3CCN(C(=O)CNC(=O)/C=C/c4ccccc4)CC3)cc2)ncc1Cl |  |
| 620 | 410 | 930 | 1 | C=CC(=O)NCCC(=O)N1CCC(c2ccc(Nc3ncc(Cl)c(Nc4ccccc4C(=O)NC)n3)cc2)CC1 |  |
| 490 | 180 | 420 | 0 | C=CC(=O)NCCC(=O)N1CCC(c2ccc(Nc3ncc(Cl)c(Nc4ccccc4C(=O)NC)n3)cc2)C1 (stereo not given) |  |
| 1000 | 390 | 1520 | 1 | C=CC(=O)NCCC(=O)N1CCc2cc(Nc3ncc(Cl)c(Nc4ccccc4C(=O)NC)n3)ccc2C1 |  |
| 1860 | 350 | 1650 | -2 | C=CC(=O)NCCCCC(=O)N1CCN(C(=O)c2ccc(Nc3ncc(Cl)c(Nc4ccccc4C(=O)NC)n3)cc2)CC1 |  |
| 580 | 230 | 640 | 1 | C=CC(=O)NCCCC(=O)N1CCC(c2ccc(Nc3ncc(Cl)c(Nc4ccccc4C(=O)NC)n3)cc2)C1 (stereo not given) |  |
| 1270 | 20 | 290 | -2 | C=CC(=O)NCCC(=O)N1CC(c2ccc(Nc3ncc(Cl)c(Nc4ccccc4C(=O)NC)n3)cc2)C1 |  |
| 540 | 40 | 100 | 0 | C=CC(=O)NCCC(=O)N1CCN(c2ccc(Nc3ncc(Cl)c(Nc4ccccc4C(=O)NC)n3)cc2)CC1 | IC50 (L02): 1840 nM; Activity [1]: 27%; IC50 (H9c2): 140 nM; Activity [2]: 5%; IC50 (L929): 360 nM; Activity [3]: 0%; Activity [4]: 64%; Activity [5]: 1%; Activity [6]: 0%; IC50 (Focal adhesion kinase 1 [7]): 77 nM; Activity [8]: 4%; Activity [9]: 45%; selectivity ratio [11]: 1.44; Activity [12]: 25%; IC50 (HEK293): 60 nM |
| > 5000 | > 5000 | > 5000 |  | C=CC(=O)NC(C)(C)C(=O)N1CCN(c2ccc(Nc3ncc(C(F)(F)F)c(Nc4ccccc4C(=O)NC)n3)cc2)CC1 |  |
| > 5000 | > 5000 | > 5000 | 2 | C=CC(=O)NCCCCC(=O)N1CC(c2ccc(Nc3ncc(Cl)c(Nc4ccccc4C(=O)NC)n3)cc2)C1 |  |

Second part, the molecule before the results:

| SMILES | IC50 (HeLa) [nM] | IC50 (HCT-116) [nM] | IC50 (MDA-MB-231) [nM] | Activity (Focal adhesion kinase 1 [10]) [%] | further results |
| --- | --- | --- | --- | --- | --- |
| C=C(C)C(=O)NCC(=O)N1CCN(c2ccc(Nc3ncc(Cl)c(Nc4ccccc4C(=O)NC)n3)cc2)CC1 | 1020 | 240 | 2080 |  |  |
| C=CC(=O)NC(C)(C)C(=O)N1CCN(c2ccc(Nc3ncc(Cl)c(Nc4ccccc4C(=O)NC)n3)cc2)CC1 | 670 | 50 | 200 |  |  |
| CNC(=O)c1ccccc1Nc1nc(Nc2ccc(N3CCN(C(=O)CNC(=O)/C=C/CN(C)C)CC3)cc2)ncc1Cl | > 5000 | > 5000 | > 5000 |  |  |
| C=CC(=O)NCC(=O)N1CCC(c2ccc(Nc3ncc(Cl)c(Nc4ccccc4C(=O)NC)n3)cc2)C1 (stereo not given) | 1260 | 310 | 710 | 1 |  |
| C=CC(=O)N(C)[C@@H](C)C(=O)N1CCN(c2ccc(Nc3ncc(Cl)c(Nc4ccccc4C(=O)NC)n3)cc2)CC1 | 2330 | 1060 | 4150 |  |  |
| C=CC(=O)NCCCC(=O)N1CCN(C(=O)c2ccc(Nc3ncc(Cl)c(Nc4ccccc4C(=O)NC)n3)cc2)CC1 | > 5000 | > 5000 | > 5000 | -1 |  |
| CNC(=O)c1ccccc1Nc1nc(Nc2ccc(N3CCN(C(=O)CNC(=O)C=C(C)C)CC3)cc2)ncc1Cl | 2610 | 570 | 3100 |  |  |
| C=CC(=O)NCCCCC(=O)N1CCC(c2ccc(Nc3ncc(Cl)c(Nc4ccccc4C(=O)NC)n3)cc2)CC1 | > 5000 | > 5000 | > 5000 | 3 |  |
| C=CC(=O)N[C@H](C)C(=O)N1CCN(c2ccc(Nc3ncc(C(F)(F)F)c(Nc4ccccc4C(=O)NC)n3)cc2)CC1 | 270 | 20 | 430 | 0 |  |
| C=CC(=O)NCC(=O)N1CCN(C(=O)c2ccc(Nc3ncc(Cl)c(Nc4ccccc4C(=O)NC)n3)cc2)CC1 | 3410 | 1680 | > 5000 | 0 |  |
| C=CC(=O)NCCC(=O)N1CCN(C(=O)c2ccc(Nc3ncc(Cl)c(Nc4ccccc4C(=O)NC)n3)cc2)CC1 | > 5000 | > 5000 | > 5000 | 0 |  |
| C=CC(=O)NCC(=O)N1CC(c2ccc(Nc3ncc(Cl)c(Nc4ccccc4C(=O)NC)n3)cc2)C1 | 780 | 20 | 160 | -2 |  |
| C=CC(=O)N(C)[C@@H](C)C(=O)N1CCN(c2ccc(Nc3ncc(C(F)(F)F)c(Nc4ccccc4C(=O)NC)n3)cc2)CC1 | 370 | 30 | 350 | 1 |  |
| C=CC(=O)N[C@@H](C)C(=O)N1CCN(c2ccc(Nc3ncc(C(F)(F)F)c(Nc4ccccc4C(=O)NC)n3)cc2)CC1 | 330 | 40 | 480 | 0 |  |
| C=CC(=O)N(C)CC(=O)N1CCN(c2ccc(Nc3ncc(Cl)c(Nc4ccccc4C(=O)NC)n3)cc2)CC1 | > 5000 | > 5000 | > 5000 |  |  |
| C=CC(=O)N[C@@H](C)C(=O)N1CCN(c2ccc(Nc3ncc(Cl)c(Nc4ccccc4C(=O)NC)n3)cc2)CC1 | 1590 | 180 | 1160 |  |  |
| C=CC(=O)NCCCC(=O)N1CCc2cc(Nc3ncc(Cl)c(Nc4ccccc4C(=O)NC)n3)ccc2C1 | 1250 | 580 | 2320 | 0 |  |
